Results taken from US9322034B2, “Compositions and methods for detecting and modulating cell death by a translation regulated gene expression system” (Wayne State University, priority 2007, dated 2016).

How the values were obtained:
[1] = system: HEK293 TRplp-EYFP and TRplp-fLUC colonies; experiment: Microplate reader screen at fixed time and toxin concentration; assay type: cell-based, human; conditions: 12 hr
Method: (§1) For this example, HEK293 cells expressing the TRplp-EYFP, TRdm-EYFP, TRplp fLUC and TRdm-fLUC expression cassettes are evaluated using a microplate reader. To quantitate the TR translational response, 24,000 cells are plated in a 96-well microtiter plates and allowed to grow for about 40 hr to achieve the proper cell density prior to incubation with a toxic agent. Each well is cultured with complete DMEM medium containing either no toxin or a defined concentration of toxin and incubated at 37 C for specific time periods. At that time, fluorescence or chemiluminescence on a FLUOstar Optima (BMG Labtech) microplate reader is used measure TR-ORF response.
Direct detection of the spontaneously fluorescent EYFP protein fluorophore is achieved by excitation of samples in black optical bottom 96-well trays with a fluorescein filter (545 nm) or a YFP filter (YFPex) and emission measured at 590 nm or 544 nm using gains of 1000-2000. To reduce the background fluorescence associated with media components, the trays are centrifuged at 1200 rpm, RT for 3 min to collect any floating cells, and the media replaced with 200 microliters of 1×PBS prior to detection. For the fLUC protein, protein activity is quantified by luminescence produced during live cell or lysed cell luciferase assays. […] Luminescence was detected using lens filter at gains of 2000-3000. […]

[2] = system: HEK293 TRplp-fLUC (subclone #3) and TRdm-fLUC (subclone #45) cells; experiment: Microplate reader dose response, lysed cell luciferase assay; assay type: cell-based, human; conditions: 12 hr
Method: as §1
For a lysed cell assay, cells are cultured as above, but in regular flat bottom 96-well trays. After toxin incubation, the 96-well plates are centrifuged as above. The media is removed, replaced with 50 microliters of Cell Lysis Buffer (25 mM Tris-phosphate (pH7.8), 10% glycerol, 1% TritonX-100, 1 mg/ml BSA, 2 mM EGTA and 2 mM DTT) and incubated for 10 min at RT. Cell lysis is verified using a phase contrast microscope, and the lysates transferred to a white bottom 96-well tray. Luminescence is developed by injection of 5 microliters of D-luciferin solution dissolved in Reaction Buffer (25 mM Glycylglycine (pH 7.8), 15 mM MgSO4, 4 mM EDTA, 15 mM Potassium phosphate, 1 mM DTT, 1 mM Coenzyme A, 6.7 mM ATP and 3.35 mM D-luciferin). After 4 sec with shaking, luminescence values were measured using the lens filter at gains of 2000-3000.
Dose response assays are necessary to define toxic concentrations of candidate cytotoxic agents. To establish a TR-mediated cellular response and identify a TR effective dose, HEK293 cells transformed with the TRplp-fLUC (subclone #3) and TRdm-fLUC (subclone #45) expression cassettes are subjected to a range of subtoxic to toxic concentrations of the calcium ionophore A23187 (0, 1 nM, 10 nM, 100 nM, 1 μM, 2 μM, 4 μM, 6 μM, 8 μM, 10 μM) for 12 hr and analyzed as described above using a lysed cell luciferase assay (FIG. 10).

CNc1ccc2oc(C[C@H]3O[C@@]4(CC[C@H]3C)O[C@H]([C@H](C)C(=O)c3ccc[nH]3)[C@H](C)C[C@H]4C)nc2c1C(=O)O [calcium ionophore A23187]
TR response in screening assay ([1]; HEK293 TRplp-EYFP subclone #41, 6.7 micromolar): significant TR responses
TR response in screening assay ([1]; HEK293 TRplp-fLUC subclone #3, 6.7 micromolar, live cell assay): significant TR responses
fLuc activity at the 8-10 μM toxin concentrations ([2]; 8-10 μM): decline in fLuc activity
concentration of peak in fLUC values ([2]; raw luciferase numbers): 6 µM
concentration at which TR-mediated translation is initially detected ([2]; raw luciferase numbers, each cassette): 1 µM
TR-specific translational activity at lower subtoxic doses ([2]; below 1 μM (1 nM, 10 nM, 100 nM)): no apparent TR-specific translational activity
